According to PMC10021052, “Novel multivalent S100A8 inhibitory peptides attenuate tumor progression and metastasis by inhibiting the TLR4-dependent pathway” (Cancer Gene Therapy, 2023):
“Also recorded” adds a separate entry of the source. Each block holds one molecule with its values, some of them ahead of it.

Tests used:
TLR4/MD-2 complex = biological target: T1, TLR4/MD-2 complex (Homo sapiens, UniProt O00206+Q9Y6Y9); assay: Divalent peptide library screening and ILVIK derivatives, binding to TLR4/MD-2 (ELISA); conditions: ELISA-based, Fig. 7A, D
T1 construct: TLR4/MD-2 recombinant protein (2 µg/ml) was added to each well
T1 sequence (O00206 24-631 limits assumed): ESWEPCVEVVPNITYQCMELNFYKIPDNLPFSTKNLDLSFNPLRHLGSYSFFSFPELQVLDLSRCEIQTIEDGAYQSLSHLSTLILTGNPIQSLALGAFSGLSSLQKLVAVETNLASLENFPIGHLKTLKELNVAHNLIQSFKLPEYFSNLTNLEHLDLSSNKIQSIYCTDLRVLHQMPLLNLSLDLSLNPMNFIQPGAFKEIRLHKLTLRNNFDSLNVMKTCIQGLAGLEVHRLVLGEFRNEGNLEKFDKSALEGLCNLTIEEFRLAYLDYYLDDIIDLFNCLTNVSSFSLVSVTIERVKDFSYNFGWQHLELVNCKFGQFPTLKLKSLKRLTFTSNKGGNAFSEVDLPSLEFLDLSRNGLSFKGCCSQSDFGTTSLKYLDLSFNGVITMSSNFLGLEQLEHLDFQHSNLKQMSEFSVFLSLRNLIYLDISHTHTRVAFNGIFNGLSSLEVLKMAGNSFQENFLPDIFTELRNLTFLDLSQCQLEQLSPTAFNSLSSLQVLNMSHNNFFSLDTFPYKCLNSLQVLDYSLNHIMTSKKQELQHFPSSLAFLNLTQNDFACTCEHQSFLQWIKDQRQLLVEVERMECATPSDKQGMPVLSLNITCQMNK
T1 sequence (Q9Y6Y9 17-160 partner limits assumed): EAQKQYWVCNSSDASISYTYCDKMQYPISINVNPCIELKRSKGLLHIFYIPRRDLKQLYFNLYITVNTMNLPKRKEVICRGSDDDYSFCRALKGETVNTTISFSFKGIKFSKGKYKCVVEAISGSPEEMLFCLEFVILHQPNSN
Method: Spot synthesis of divalent peptides on a cellulose membrane was performed using a ResPep SL SPOT synthesizer (INTAVIS Bioanalytical Instruments AG, Koeln, Germany) as described previously. Briefly, Fmoc-β-Ala-OH (Watanabe Chemical Industries, Hiroshima, Japan) was used in the first cycle, followed by amino hexanoic acid as a spacer. Fmoc-Lys(Fmoc)-OH (Watanabe Chemical Industries) was used for the next cycle to form two branches in the peptide chain for the subsequent synthesis of the various motifs. The synthesis of each peptide was confirmed by staining the membrane using bromophenol blue (1% in N, N′-dimethylformamide), which reacts with free amino residues. Free amino residues are produced only after the completion of all reactions and before deprotection of the side chain residues. […]
S100A8 recombinant protein was purified as previously described. […] Absorbance OD450/OD650 was measured using a microplate reader (Thermo Fisher Scientific). […] The amount of interleukin-8 (IL-8) or VEGF in the supernatants were analyzed by ELISA kits (R&D Systems, Mineapolis, MN) according to the manufacturer’s instructions.
Fig. 7 Isolation of multivalent S100A8 inhibitory peptides using divalent peptide libraries based on the sequences of peptide3A5. […] The binding affinities to TLR4/MD-2 complex were determined using an ELISA-based assay. […]

PKH26-labeled LLC cells = assay: Lung dissemination of PKH26-labeled LLC cells in TCM-sensitized mice; format: in vivo, C57BL/6J mice; conditions: 10 mg/kg i.p. 1 h before last TCM injection; lungs 16 h after cells; 5–6 mice per group; *P < 0.05 vs control
SW480 cells [1] = assay: qPCR, S100A8-mediated IL-8 and VEGF mRNA induction in SW480 cells; format: cell-based, human; conditions: qPCR, normalized to β-actin
Method: SW480 cells were treated with S100A8 in Dulbecco’s Modified Eagle Medium/HamF12 supplemented with 0.1% bovine serum albumin for cytokine induction. Total RNA was extracted using the RNeasy Mini Plus (Qiagen, Hilden, Germany). Complementary DNA was synthesized using the PrimeScript 1st Strand Synthesis kit (Takara Bio, Japan). Quantitative PCR (qPCR) analysis was performed using the PowerUp^TM SYBR^TM Green mixture (Thermo Fisher Scientific) and the StepOnePlus Real Time PCR System (Thermo Fisher Scientific). Gene expression levels were calculated from Ct values, and the relationship between the Ct value and the logarithm of the copy number of a target gene was confirmed to be on a linear line using the corresponding isolated DNA and its serial dilutions as a standard. Thus, the gene expression levels of IL-8 and VEGF were normalized against that of β-actin in each sample. The following primers were used; β-actin, 5′-[…]-3′ and 5′-[…]-3′; IL-8, 5′-[…]-3′ and 5′-[…]-3′; VEGF, 5′-[…]-3′ and 5′-[…]-3′.
(§1) Fig. 2 Identification of S100A8 binding sites to human TLR4/MD-2. […] TLR4/MD-2 recombinant proteins were immobilized to the ELISA plate. After blocking, a full length or deletion mutant of S100A8 was added to the plate. The more detailed methods are described in Materials and Methods. […] B A series of overlapping S100A8 synthetic peptides. The TLR4/MD-2 recombinant proteins were added to each well of peptide immobilized plates. The affinity to TLR4/MD-2 was determined. Data are shown as mean ± SD. C The competitive activity was determined using ELISA. Data are shown as mean ± SD. D The TLR4/MD-2 was mixed with S100A8 with/without the indicated peptides, and immunoprecipitated using an anti-TLR4 antibody. TLR4 or S100A8 was visualized. Similar results were obtained in three independent experiments. […] Total RNAs from SW480 cells with/without treatment of the peptide candidates were extracted and qPCR analysis was performed using relevant primer sets and SYBR green. Relative expression levels were compared. […] TEXT PRINTED IN THE PICTURE: (A) Full length: TLR4/MD-2 binding: + | (A) S100A8-ΔC: TLR4/MD-2 binding: − | (A) S100A8-N: TLR4/MD-2 binding: −
(§2) Fig. 4 Improvement of competitive inhibition activity by divalent peptide3A5. A The binding capacity was measured at the indicated concentration using an ELISA-based assay. Similar results were obtained in three independent experiments. B SW480 cells were pretreated with 2.5 µM of divalent peptide3A5, and then stimulated with human S100A8 recombinant protein. After 30 min, cell lysates were subjected to western blotting using the indicated antibody. The divalent peptide#3 or peptide3A5 reduced the expression of S100A8-mediated IL-8 (C) and VEGF (D) induction. Total RNAs from SW480 cells with/without treatment of the peptide candidates were extracted and qPCR analysis was performed using relevant primer sets and SYBR green. Relative expression levels were compared. Peptide #3 suppresses S100A8-mediated IL-8(E) and VEGF (F) secretion in SW480 cells.

S100A8-TLR4/MD-2 complex = assay: Competitive inhibition of S100A8-TLR4/MD-2 binding (ELISA, S100A8 immobilized; also immunoprecipitation); parameters: species or system human; conditions: for competitive inhibition, potency compared with parent: ELISA, peptide3A5 vs peptide #3 (Fig. 3B), divalent vs monomer (Fig. 4A); for competitive inhibitory activity against TLR4/MD-2, peptide3A5-derived peptides: competitive inhibitory assay, Fig. 7B, E, *P < 0.05 vs TLR4/MD-2/S100A8
Method: (§3) S100A8 recombinant protein was purified as previously described. These proteins were immobilized on Maxisorp plates (Thermo Fisher Scientific, Waltham, MA, USA), followed by blocking with protein-free blocking buffer (Thermo Fisher Scientific). TLR4/MD-2 recombinant proteins with various concentrations of candidate peptides were then added to the indicated S100A8-immobilized ELISA plates for 2 h. The plates were washed, incubated with anti-TLR4 antibody, and HRP-conjugated secondary antibody, followed by the addition of substrate. The reaction was stopped by addition a 2N H2SO4 solution. Absorbance OD450/OD650 was measured using a microplate reader (Thermo Fisher Scientific). Maxisorp plates were also used for peptide coating. After blocking with protein-free blocking buffer, the coated plates were washed, and TLR4/MD-2 recombinant protein (2 µg/ml) was added to each well. The plates were incubated with a TLR4 antibody followed by horseradish peroxidase (HRP)-labeled anti-rabbit IgG. For detection of IL8 and VEGF in culture supernatants, SW480 cells were pretreated with the indicated peptides, and followed by stimulation with S100A8 for 24 h. The amount of interleukin-8 (IL-8) or VEGF in the supernatants were analyzed by ELISA kits (R&D Systems, Mineapolis, MN) according to the manufacturer’s instructions.
as §1, §2

human TLR4/MD-2 complex [2] = assay: ELISA, TLR4/MD-2 binding to immobilized S100A8-derived peptides (overlapping peptides, alanine scan); conditions: alanine scan on peptide #3, compared with parental peptide#3, peptide3A5 *P = 0.013
Method: as §3, §1
Fig. 3 Identification of high affinity peptides to TLR4/MD-2 using alanine scanning based on the peptide #3 amino acid sequences. A Lists of peptides used for alanine scanning. […] Similar results were obtained in three independent experiments.

[3] = tested on: tumor cells and macrophages; assay: Cytokine/chemokine induction in tumor cells and macrophages; format: cell-based; conditions: possible mechanism scheme, Fig. 7I
[4] = tested on: SW480-transplanted xenograft; assay: Tumor growth in SW480-transplanted xenograft model; format: in vivo, Balb nu/nu mice; conditions: SW480 xenograft, various concentrations every 3 days, *P < 0.05 vs control
human TLR4/MD-2 complex [5] = assay: ELISA, S100A8 protein or mutant binding to TLR4/MD-2; conditions: recombinant S100A8 full length or mutant
Method: as §3
Fig. 2 Identification of S100A8 binding sites to human TLR4/MD-2. […] TLR4/MD-2 recombinant proteins were immobilized to the ELISA plate. After blocking, a full length or deletion mutant of S100A8 was added to the plate. The more detailed methods are described in Materials and Methods. […] B A series of overlapping S100A8 synthetic peptides. The TLR4/MD-2 recombinant proteins were added to each well of peptide immobilized plates. The affinity to TLR4/MD-2 was determined. Data are shown as mean ± SD. C The competitive activity was determined using ELISA. Data are shown as mean ± SD. D The TLR4/MD-2 was mixed with S100A8 with/without the indicated peptides, and immunoprecipitated using an anti-TLR4 antibody. TLR4 or S100A8 was visualized. […]

[6] = biological target: tetravalent ILVIK (human); assay: ELISA; tetravalent ILVIK immobilised; after blocking TLR4/MD-2 proteins added at various concentrations (Fig. 7F)
mouse TLR4/MD-2 complex = conditions: ref [8]; cited from earlier work
SW480 cells [7] = assay: ELISA, IL-8 and VEGF secretion of SW480 cells; format: cell-based, human; conditions: SW480 cells; data not shown
Method: as §3

Molecule: FQEFA [FQEFA dimer, dimer of FQEFA, peptide3A5 with the last five amino acids deleted]
binding to TLR4/MD-2, peptide3A5-derived peptides (TLR4/MD-2 complex): diminished the capacity of binding to TLR4/MD-2

affinity for TLR4/MD-2, alanine scanning (human TLR4/MD-2 complex [2]): increased the affinity for TLR4/MD-2
affinity for TLR4/MD-2, alanine scanning (human TLR4/MD-2 complex [2]; listed as Peptide3A5): increased binding affinity to TLR4/MD-2
Molecule: FQEFAILVIK [peptide3A5]
pulmonary recruitment of PKH26-labeled LLC cells / lung metastasis (PKH26-labeled LLC cells): suppressed the pulmonary recruitment of tumor cells
S100A8-mediated VEGF induction (mRNA) (SW480 cells [1]): reduced
S100A8-mediated IL-8 induction (mRNA) (SW480 cells [1]; *P < 0.05 vs S100A8): reduced
competitive inhibition, potency compared with parent (S100A8-TLR4/MD-2 complex): competed with the S100A8-TLR4/MD-2 complex at a lower dose than peptide #3
competitive inhibition, potency compared with parent (S100A8-TLR4/MD-2 complex; listed as Peptide3A5): more potent for competitive inhibition on S100A8-TLR4/MD-2 complex than peptide #3

Molecule: ILVIK [Divalent ILVIK, divalent peptide with two ILVIK motifs on a monolysine core, N-terminus acetylated]
induction of cytokines/chemokines [3]: suppress the induction of cytokines/chemokines in both tumor cells and macrophages
competitive inhibitory activity against TLR4/MD-2, peptide3A5-derived peptides (S100A8-TLR4/MD-2 complex; listed as deletion mutant of the FQEFA amino acid sequences): sustained the competitive inhibitory activity
competitive inhibitory activity against TLR4/MD-2, peptide3A5-derived peptides (S100A8-TLR4/MD-2 complex; listed as divalent ILVIK): candidate inhibitor; also recorded: competitively inhibited S100A8 binding to TLR4/MD-2
tumor growth, multivalent ILVIK [4]: inhibits tumor growth
tumor growth, multivalent ILVIK ([4]; listed as divalent ILVIK): inhibited tumor growth in subcutaneously transplanted SW480 cells in a dose-dependent manner

binding to TLR4/MD-2, peptide3A5-derived peptides (TLR4/MD-2 complex): did not perform these activities
Molecule: ILVIK [monomeric ILVIK, monovalent ILVIK peptide, N-terminus acetylated]
competitive inhibitory activity against TLR4/MD-2, peptide3A5-derived peptides (S100A8-TLR4/MD-2 complex): did not perform these activities; also recorded: failed to obtain the competitive inhibitory activities against the TLR4/MD-2 complex

Molecule: Lys77: peptide #3 with substitution of Lys77 with alanine (FQEFLILVIA)
affinity for TLR4/MD-2, alanine scanning (human TLR4/MD-2 complex [2]): diminished the S100A8 activity of TLR4/MD-2 binding

binding to human TLR4/MD-2 (in words) (human TLR4/MD-2 complex [5]): binds to human TLR4/MD-2 complex
Molecule: human S100A8: full length human S100A8 recombinant protein

Kd [6]: 4.58 to 8.78 nM
Molecule: human TLR4/MD-2 complex (from UniProt O00206 24-839; Q9Y6Y9 19-160)

B1: mouse S100A8: mouse S100A8 protein (protein, UniProt P27005 2-89, looked up)
Protein S100-A8: PSELEKALSNLIDVYHNYSNIQGNHHALYKNDFKKMVTTECPQFVQNINIENLFRELDINSDNAINFEEFLAMVIKVGVASHKDSHKE
binding to mouse TLR4/MD-2 (mouse TLR4/MD-2 complex): binds to the mouse TLR4/MD-2 complex via the carboxyl-terminal region

binding to human TLR4/MD-2 (in words) (human TLR4/MD-2 complex [5]): hardly bound to the TLR4/MD-2 complex
binding to human TLR4/MD-2 (in words) (human TLR4/MD-2 complex [5]; listed as S100A8Lys77Ala): decreased affinity to TLR4/MD-2
B2: S100A8-Lys77Ala: S100A8-Lys77Ala recombinant protein (protein)
chain: MLTELEKALNSIIDVYHKYSLIKGNFHAVYRDDLKKLLETECPQYIRKKGADVWFKELDINTDGAVNFQEFLILVIAMGVAAHKKSHEESHKE
IL-8 production, S100A8 mutant (SW480 cells [7]): had no effect on IL-8 production
